From US20190375708A1 (VenatoRx Pharmaceuticals, Inc., priority 2018, published 2019)

Assays:
[1] = tested on: HBV replication in HepAD38 cells; experiment: Anti-HBV replication assay in HepAD38 cells (QPCR of extracellular HBV DNA); assay type: cell-based, HBV (genotype D, serotype ayw); settings: Hepatitis B virus, 168 h, 7 days incubation, extracellular HBV DNA by QPCR, read-out: Anti-HBV EC50
Method in brief: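 Compounds (1 log10 serial dilutions, […]) were left 7 days on tetracycline-free HepAD38 cultures, a HepG2 line with tet-controlled HBV genotype D. EC50 came from 4-parameter regression of percent inhibition versus vehicle, using supernatant HBV DNA copies/mL measured by QPCR.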

[2] = In vitro cytotoxicity assay (MTT cell viability) in HepG2 cells; assay type: cell-based, human; settings: human
Method in brief: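 Viability measured by MTT conversion, absorbance at 492 nm, as percent of vehicle-treated wells. Compounds spanned 30 μM to 1.0 nM in half-log steps over a 7-day exposure of parental HepG2 cells; CC50 derived by 4-parameter curve fit.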

| Compound | EC50 [1] [nM] | CC50 at 7 days [2] [nM] |
| --- | --- | --- |
| O=C(N[C@H]1COC[C@@H]1O)C(=O)c1c(Cl)c(C(=O)Nc2ccc(F)c(Cl)c2)c2n1CCCC2 [Example 513, 2-chloro-N-(3-chloro-4-fluorophenyl)-3-(2-(((3S,4R)-4-hydroxytetrahydrofuran-3-yl)amino)-2-oxoacetyl)-5,6,7,8-tetrahydroindolizine-1-carboxamide] | 50 to 499 | > 30000 |
| Cc1cc(NC(=O)c2c(C)c(C(=O)C(=O)NCC(C)(C)N3CCOCC3)n(C)c2C)ccc1F [Example 352, N-(4-fluoro-3-methylphenyl)-1,2,4-trimethyl-5-(2-((2-methyl-2-morpholinopropyl)amino)-2-oxoacetyl)-1H-pyrrole-3-carboxamide] | 50 to 499 | > 30000 |
| Cc1cc(NC(=O)c2c(C)c(C(=O)C(=O)NC3(c4noc(-c5cccs5)n4)CCCCC3)n(C)c2C)ccc1F [Example 634] | < 50 | > 30000 |
| Cc1cc(NC(=O)c2c(C)c(C(=O)C(=O)NC3CCC(F)(F)CC3)n(C)c2C)ccc1F [Example 250, 5-(2-((4,4-difluorocyclohexyl)amino)-2-oxoacetyl)-N-(4-fluoro-3-methylphenyl)-1,2,4-trimethyl-1H-pyrrole-3-carboxamide] | < 50 | 5000 to 30000 |
| Cc1c(C(=O)Nc2ccc(F)c(F)c2)c2n(c1C(=O)C(=O)NC1(c3nn[nH]n3)CCCC1)CCCC2 [Example 743, 3-(22-((1-(2H-tetrazol-5-yl)cyclopentyl)amino)-2-oxoacetyl)-N-(3,4-difluorophenyl)-2-methyl-5,6,7,8-tetrahydroindolizine-1-carboxamide] | 50 to 499 | > 30000 |
| Cc1c(C(=O)Nc2cccc(C(F)F)c2)c(C)n(C)c1C(=O)C(=O)N[C@]1(C)C[C@H](O)C1 [Example 705, N-(3-(difluoromethyl)phenyl)-5-(2-(((1s,3s)-3-hydroxy-1-methylcyclobutyl)amino)-2-oxoacetyl)-1,2,4-trimethyl-1H-pyrrole-3-carboxamide] | < 50 | > 30000 |
| COc1c(C(=O)Nc2ccc(F)c(F)c2)c(C)n(C)c1C(=O)C(=O)NC1(C)CC(F)(F)C1 [Example 379, 5-(2-((3,3-difluoro-1-methylcyclobutyl)amino)-2-oxoacetyl)-N-(3,4-difluorophenyl)-4-methoxy-1,2-dimethyl-1H-pyrrole-3-carboxamide] | 50 to 499 | > 30000 |
| Cc1c(C(=O)Nc2ccc(F)c(F)c2)c(C)n(C)c1C(=O)C(=O)NC1CCC(F)(F)CC1 [Example 298, 5-(2-((4,4-difluorocyclohexyl)amino)-2-oxoacetyl)-N-(3,4-difluorophenyl)-1,2,4-trimethyl-1H-pyrrole-3-carboxamide] | < 50 | > 30000 |
| Cc1cc(NC(=O)c2c(C)c(C(=O)C(=O)NC3CC[C@@H](O)[C@@H](O)CC3)n(C)c2C)ccc1F (stereo partly drawn) [Example 713, 5-(2-(((4R,5S)-4,5-dihydroxycycloheptyl)amino)-2-oxoacetyl)-N-(4-fluoro-3-methylphenyl)-1,2,4-trimethyl-1H-pyrrole-3-carboxamide] | < 50 | > 30000 |
| Cc1cc(NC(=O)c2cc(C(=O)C(=O)NCC(C)(C)O)n3c2CCCC3)ccc1F [Example 419, N-(4-fluoro-3-methylphenyl)-3-(2-((2-hydroxy-2-methylpropyl)amino)-2-oxoacetyl)-5,6,7,8-tetrahydroindolizine-1-carboxamide] | > 1000 | > 30000 |
| Cc1cc(NC(=O)c2c(C)c(C(=O)C(=O)NCC(O)c3ccsc3)n(C)c2C)ccc1F (stereo not shown) [Example 648, N-(4-fluoro-3-methylphenyl)-5-(2-((2-hydroxy-22-(thiophen-3-yl)ethyl)amino)-2-oxoacetyl)-1,2,4-trimethyl-1H-pyrrole-3-carboxamide] | < 50 | > 30000 |
| Cc1cc(NC(=O)c2c(C)c(C(=O)C(=O)N[C@H]3CC[C@@H](O)CC3)n(C)c2C)ccc1F [Example 137, N-(4-fluoro-3-methylphenyl)-5-(2-(((1s,4s)-4-hydroxycyclohexyl)amino)-2-oxoacetyl)-1,2,4-trimethyl-1H-pyrrole-3-carboxamide] | < 50 | > 30000 |
| Cc1cc(NC(=O)c2c(C)c(C(=O)C(=O)N[C@H]3CCC[C@@H]3O)n(C)c2C)cnc1F [Example 131, N-(6-fluoro-5-methylpyridin-3-yl)-5-(2-(((1S,2S)-2-hydroxycyclopentyl)amino)-2-oxoacetyl)-1,2,4-trimethyl-1H-pyrrole-3-carboxamide] | 50 to 499 | > 30000 |
| Cc1cc(NC(=O)c2c(C)c(C(=O)C(=O)NC3(C)CCN(C(=O)c4cnn(C)c4)CC3)n(C)c2C)ccc1F [Example 693, N-(4-fluoro-3-methylphenyl)-1,2,4-trimethyl-5-(2-((4-methyl-1-(1-methyl-1H-pyrazole-4-carbonyl)piperidin-4-yl)amno)-2-oxoacetyl)-1H-pyrrole-3-carboxamide] | < 50 | > 30000 |
| Cc1cc(NC(=O)c2cc(C(=O)C(=O)NC[C@H](O)CO)n3c2CCCC3)ccc1F [Example 416, (S)-3-(2-((2,3-dihydroxypropyl)amino)-2-oxoacetyl)-N-(4-fluoro-3-methylphenyl)-5,6,7,8-tetrahydroindolizine-1-carboxamide] | > 1000 | > 30000 |
| Cc1cc(NC(=O)c2c(C)c(C(=O)C(=O)NC3(c4nc(-c5cnccn5)no4)CCCCC3)n(C)c2C)ccc1F [Example 631, N-(4-fluoro-3-methylphenyl)-1,2,4-trimethyl-5-(2-oxo-2-((1-(3-(pyrazin-2-yl)-1,2,4-oxadiazol-5-yl)cyclohexyl)amino)acetyl)-1H-pyrrole-3-carboxamide] | < 50 | > 30000 |
| CNC(=O)[C@H](NC(=O)C(=O)c1c(C)c(C(=O)Nc2ccc(F)c(C)c2)c(C)n1C)C(C)C [Example 106, (R)-N-(4-fluoro-3-methylphenyl)-1,2,4-trimethyl-5-(2-((3-methyl-1-(methylamino)-1-oxobutan-2-yl)amino)-2-oxoacetyl)-1H-pyrrole-3-carboxamide] | < 50 | 500 to 4990 |
| Cc1cc(NC(=O)c2c(C)c(C(=O)C(=O)N[C@@H](CO)C(N)=O)n(C)c2C)ccc1F [Example 41, (S)-5-(2-((1-amino-3-hydroxy-1-oxopropan-2-yl)amino)-2-oxoacetyl)-N-(4-fluoro-3-methylphenyl)-1,2,4-trimethyl-1H-pyrrole-3-carboxamide] | < 50 | 500 to 4990 |
| Cc1cc(NC(=O)c2c(C)c(C(=O)C(=O)NC3CC4(CC(O)C4)C3)n(C)c2C)ccc1F (stereo not shown) [Example 598, N-(4-fluoro-3-methylphenyl)-5-(2-((6-hydroxyspiro[3.3]heptan-2-yl)amino)-2-oxoacetyl)-1,2,4-trimethyl-1H-pyrrole-3-carboxamide] | < 50 | > 30000 |
| Cc1cc(NC(=O)c2c(C)c(C(=O)C(=O)NC3(C)CCN(C(=O)Nc4ccc(F)c(F)c4)CC3)n(C)c2C)ccc1F [Example 707, N-(3,4-difluorophenyl)-4-(2-(4-((4-fluoro-3-methylphenyl)carbamoyl)-1,3,5-trimethyl-1H-pyrrol-2-yl)-2-oxoacetamido)-4-methylpiperidine-1-carboxamide] | < 50 | 500 to 4990 |
| Cc1cc(NC(=O)c2c(C)c(C(=O)C(=O)NC3(C)CCN(C(=O)c4ccnn4C)CC3)n(C)c2C)ccc1F [Example 692, N-(4-fluoro-3-methylphenyl)-1,2,4-trimethyl-5-(2-((4-methyl-1-(1-methyl-1H-pyrazole-5-carbonyl)piperidin-4-yl)amino)-2-oxoacetyl)-1H-pyrrole-3-carboxamide] | < 50 | > 30000 |
| Cc1c(C(=O)NC2(C)CCCC2)c2n(c1C(=O)C(=O)NC(C)(C)CO)CCCC2 [Example 753, 3-(2-((1-hydroxy-2-methylpropan-2-yl)amino)-2-oxoacetyl)-2-methyl-N-(1-methylcyclopentyl)-5,6,7,8-tetrahydroindolizine-1-carboamide] | 50 to 499 | > 30000 |
| Cc1cc(NC(=O)c2c(C)c(C(=O)C(=O)N[C@@H](C)CO)n(C)c2C)ccc1F [Example 217, (S)-N-(4-ffluoro-3-methylphenyl)-5-(2-((1-hydroxypropan-2-yl)amino)-2-oxoacetyl)-1,2,4-trimethyl-1H-pyrrole-3-carboxamide] | < 50 | > 30000 |
| Cc1cc(NC(=O)c2c(C)c(C(=O)C(=O)Nc3cc(F)[nH]c(=O)c3)n(C)c2C)ccc1F [Example 674, 5-(2-((6-fluoro-2-oxo-1,2-dihydropyridin-4-yl)amino)-2-oxoacetyl)-N-(4-fluoro-3-methylphenyl)-1,2,4-trimethyl-1H-pyrrole-3-carboxamide] | 50 to 499 | 5000 to 30000 |
| Cc1cc(NC(=O)c2c(C)c(C(=O)C(=O)NC34CCC(O)(CC3)CC4)n(C)c2C)ccc1F [Example 263, N-(4-fluoro-3-methylphenyl)-5-(2-((4-hydroxybicyclo[2.2.2]octan-1-yl)amino)-2-oxoacetyl)-1,2,4-trimethyl-1H-pyrrole-3-carboxamide] | < 50 | > 30000 |
| Cc1c(C(=O)Nc2ccn(C)n2)c2n(c1C(=O)C(=O)NC1(CO)CCC1)CCCC2 [Example 748, 3-(2-((1-(hydroxymethyl)cyclobutyl)amino)-2-oxoacetyl)-2-methyl-N-(1-methyl-1H-pyrazol-3-yl)-5,6,7,8-tetrahydroindolizine-1-carboxamide] | 50 to 499 | > 30000 |
